Data on one compound can be found in patent publication US20230391761A1, “S[…]-ALANINATE DERIVATIVES” (BAYER AKTIENGESELLSCHAFT, priority 2021, published 2023).

The data set can be described thus: Solubility in Citrate Buffer pH 4. As to conditions: 25 °C, pH 4, aqueous buffer, thermodynamic from solid.

In general, solubility refers to the concentration that dissolves in the medium under given conditions.

Structures are written as SMILES.

Procedure: 25 mg compound are placed in 2 ml solvent. […] Thereafter, the solution or suspension is filtered and the remaining solution is analyzed via HPLC. The solubility is determined by comparison of the total area of the substance peak to a calibration curve (external standard).
Thereafter, the solution was centrifuged and analyzed via HPLC. The solubility was determined by comparison of the total area of the substance peak to a calibration curve (external standard). The measurements were conducted in triplicates.

In turn, `CCc1c(N2CC[C@H](O)C2=O)cccc1S(=O)(=O)N[C@@H](CNC(=O)c1ccc(Cl)s1)C(=O)OCCc1nccn1C.Cl` [Example 2, 2-(1-Methyl-1H-imidazol-2-yl)ethyl 3-[(5-chlorothiophene-2-carbonyl)amino]-N-{2-ethyl-3-[(3S)-3-hydroxy-2-oxopyrrolidin-1-yl]benzene-1-sulfonyl}-S-alaninate hydrochloride] came in with a solubility at 24 h of over 500 mg/mL.
